Source: US20070054908A1, “Novel pharmaceutical compositions and methods for treating tumors, including drug-resistant tumors” (priority 2005, published 2007)
Marks after values point to notes of the source that are not given here.

Experiments:
PC-3 (p53, del) = experiment: MTT cytotoxicity assay, PC-3; assay type: cell-based; conditions: Homo sapiens, 96 hr
Protocol: (§1) To evaluate the cytotoxic activity of the two compounds, human prostate cancer cells (PC-3, LNCaP, and DU145) were plated into 96-well plate and incubated for 96 hr with various concentrations of desired drugs. During the last 2 hr, MTT (3-(4,5-dimethylthiazol-2-yl)-2,5-diphenyltetrazolium bromide) was added and the dark-blue formazan formed in live cells was dissolved in dimethyl sulfoxide and the absorbance was measured with a FLUOstar Optima microplate reader (BMG LABTECH Inc., Durham, N.C.) at 570 nm. The IC50 was defined as the concentration of a drug that inhibited cell growth by 50% (see Dong et al, supra, and Dong Z, et al. “Organ-specific modulation of steady-state mdr gene expression and drug resistance in murine colon cancer cells” J. Natl. Cancer Inst 1994;86(12):913-20, both references fully incorporated herein by this reference).

LNCaP (p53, wt) = experiment: MTT cytotoxicity assay, LNCaP; assay type: cell-based; conditions: Homo sapiens, 96 hr
Protocol: as §1

DU145 (p53, mt) = experiment: MTT cytotoxicity assay, DU145; assay type: cell-based; conditions: Homo sapiens, DU-145, 96 hr
Protocol: as §1

MCF-7 (p53, wt) = experiment: MTT cytotoxicity assay, MCF-7; assay type: cell-based; conditions: Homo sapiens, MCF7
Protocol: as §1
(§2) In addition, the present inventors discovered that the compounds could also effectively kill human breast (MCF-7 and MDA435) and melanoma (A375) cells, as well as several lines of mouse tumor cells, with similar potencies (Table 1). Moreover, DL-001 could effectively kill endothelial cells derived from mouse lung and prostate (Table 1). Furthermore, it appears that tumor cells (LNCaP, MCF-7, and A375) that harbor the wildtype p53 tumor suppressor gene were relatively more sensitive to DL-001 (Table 1).

MDA435 (p53, mt) = experiment: MTT cytotoxicity assay, MDA435; assay type: cell-based; conditions: Homo sapiens
Protocol: as §1, §2

A375 (p53, wt) = experiment: MTT cytotoxicity assay, A375; assay type: cell-based; conditions: Homo sapiens, A-375
Protocol: as §1, §2

TRAMP (prostate) = experiment: MTT cytotoxicity assay, TRAMP; assay type: cell-based; conditions: mouse cells
Protocol: as §1, §2

4T1 (breast) = experiment: MTT cytotoxicity assay, 4T1; assay type: cell-based; conditions: mouse cells
Protocol: as §1, §2

B16 (melanoma) = experiment: MTT cytotoxicity assay, B16; assay type: cell-based; conditions: mouse cells
Protocol: as §1, §2

UV2237 (fibrosarcoma) = experiment: MTT cytotoxicity assay, UV2237; assay type: cell-based; conditions: mouse cells
Protocol: as §1, §2

CT-26 (colon) = experiment: MTT cytotoxicity assay, CT-26; assay type: cell-based; conditions: CT26, mouse cells, parental
Protocol: as §1, §2

CT-26 (colon, MDR) = experiment: MTT cytotoxicity assay, CT-26 MDR; assay type: cell-based; conditions: Mus musculus, CT26, multidrug resistant
Protocol: as §1, §2

[1] = tested on: mouse endothelial cells, lung; experiment: MTT cytotoxicity assay, lung endothelial cells; assay type: cell-based; conditions: Endothelial cell
Protocol: as §1, §2

[2] = tested on: mouse endothelial cells, prostate; experiment: MTT cytotoxicity assay, prostate endothelial cells; assay type: cell-based; conditions: Endothelial cell
Protocol: as §1, §2

caspase 2 = experiment: Fluorometric caspase assay in PC-3MM2 cells, caspase 2; assay type: cell-based, human; conditions: 50 nM, 24 hr
Protocol: (§3) Taxol is known to kill tumor cells by inducing arrest of cells at […] cell cycle and apoptosis. To identify mechanisms by which DL-001 killed tumor cells, we compared effects of DL-001 and Taxol on PC-3MM2 cells. […] To verify the role of DL-001 in inducing apoptosis, the activity of caspase 2,3,6,8 and 9 was analyzed. PC-3MM2 cells are treated with 50 nM of DL-001, taxol, or vincristine for 24 hr. Caspase activities in the treated cells are assessed by using a fluorometric caspase assay kit (Bio Vision, Mountain View, Calif.).

caspase 3 = experiment: Fluorometric caspase assay in PC-3MM2 cells, caspase 3; assay type: cell-based, human; conditions: 50 nM, 24 hr
Protocol: as §3

caspase 6 = experiment: Fluorometric caspase assay in PC-3MM2 cells, caspase 6; assay type: cell-based, human; conditions: 50 nM, 24 hr
Protocol: as §3

caspase 8 = experiment: Fluorometric caspase assay in PC-3MM2 cells, caspase 8; assay type: cell-based, human; conditions: 50 nM, 24 hr
Protocol: as §3

caspase 9 = experiment: Fluorometric caspase assay in PC-3MM2 cells, caspase 9; assay type: cell-based, human; conditions: 50 nM, 24 hr
Protocol: as §3

PC-3MM2 tumors = experiment: Orthotopic model of PC-3 human prostate cancer cells in nude mice; assay type: in vivo; conditions: for toxic side effects on mice: based on body weight and H & E-stained sections of heart, lung, liver, kidney, spleen
Protocol: PC-3MM2 cells are implanted into the prostate of nude mice. The therapy begins 3 days later, when tumors are established, by daily intraperitoneal injection of DL-001 at 10 mg/kg or 20 mg/kg of body weight or of DMSO (solvent). Experiments are terminated 3 weeks later.

PC-3MM2 cells = experiment: Cell cycle and apoptosis in PC-3MM2 cells; assay type: cell-based, human
Protocol: as §3

Structure (SMILES)	IC50 (PC-3 (p53, del)) [nM]	IC50 (DU145 (p53, mt)) [nM]	IC50 (CT-26 (colon)) [nM]	IC50 (CT-26 (colon, MDR)) [nM]	Fold change of caspase activity compared with that in control cells, caspase 2 (caspase 2)	Fold change of caspase activity compared with that in control cells, caspase 3 (caspase 3) [fold]	Fold change of caspase activity compared with that in control cells, caspase 6 (caspase 6) [fold]	Fold change of caspase activity compared with that in control cells, caspase 8 (caspase 8) [fold]	Fold change of caspase activity compared with that in control cells, caspase 9 (caspase 9) [fold]	toxic side effects on mice (PC-3MM2 tumors)	effect on cell cycle and apoptosis (PC-3MM2 cells)	further results
COc1ccc(C(=O)c2cc([N+](=O)O)ccc2N2CCCCC2)cc1 (racemic) [DL-001, (4-Methoxy-phenyl)-(5-nitro-2-piperidin-1-yl-phenyl)-methanone]	32	28	39	39	17* fold	22	1	1	4	did not produce significant toxic side effects	arrested at S/G2 checkpoint of cell cycle and went into apoptosis	IC50 (LNCaP (p53, wt)): 11 nM; IC50 (MCF-7 (p53, wt)): 17 nM; IC50 (MDA435 (p53, mt)): 30 nM; IC50 (A375 (p53, wt)): 23 nM; IC50 (TRAMP (prostate)): 41 nM; IC50 (4T1 (breast)): 30 nM; IC50 (B16 (melanoma)): 26 nM; IC50 (UV2237 (fibrosarcoma)): 35 nM; IC50 [1]: 45 nM; IC50 [2]: 51 nM; growth of PC-3MM2 tumors in the prostate of nude mice (PC-3MM2 tumors; daily intraperitoneal injection, 10 mg/kg or 20 mg/kg (DL-001), from day 3, terminated 3 weeks later): inhibited growth of PC-3MM2 tumors in dose-dependent manner
COc1ccc(C(=O)c2cc([N+](=O)O)ccc2N2CCOCC2)cc1 (racemic) [DL-002, (4-Methoxy-phenyl)-(2-morpholin-4-yl-5-nitro-phenyl)-methanone]	30	30	–	–	–	–	–	–	–	did not produce significant toxic side effects	–	–
CC(=O)O[C@H]1C(=O)[C@@]2(C)[C@H]([C@H](OC(=O)c3ccccc3)[C@]3(O)C[C@H](OC(=O)[C@H](O)[C@@H](NC(=O)c4ccccc4)c4ccccc4)C(C)=C1C3(C)C)[C@]1(OC(C)=O)CO[C@@H]1C[C@@H]2O [Taxol]	4	3	73	367	26 fold	34	1	1	7	–	arrested at S/G2 checkpoint of cell cycle and went into apoptosis	–
CC[C@]1(O)C[C@H]2CN(CCc3c([nH]c4ccccc34)[C@@](C(=O)OC)(c3cc4c(cc3OC)N(C=O)[C@H]3[C@@](O)(C(=O)OC)[C@H](OC(C)=O)[C@]5(CC)C=CCN6CC[C@]43[C@@H]65)C2)C1 [Vincristine, vincristine]	4	5	16	38	18 fold	24	1	1	4	–	–	–
